Measurements published in patent US7414134B2, “B1 bradykinin receptor antagonists” (Amgen Inc., priority 2004, dated 2008).
Ends that are not written are not given here.

What was measured:
hB1 receptor = biological target: T1, hB1 receptor (Homo sapiens, UniProt P46663); experiment: In vitro assay of human B1 receptor function using calcium flux (aequorin); assay type: cell-based; settings: CHO D-/hB1/Aequorin cells, agonist 20 nM des-Arg10-Kallidin (EC80); read-out: binding IC50's to hB1 receptor function
T1 construct: expressed in transfected cells; host or cells: CHO D- cells stably expressing hB1 and aequorin
T1 sequence (P46663 1-353): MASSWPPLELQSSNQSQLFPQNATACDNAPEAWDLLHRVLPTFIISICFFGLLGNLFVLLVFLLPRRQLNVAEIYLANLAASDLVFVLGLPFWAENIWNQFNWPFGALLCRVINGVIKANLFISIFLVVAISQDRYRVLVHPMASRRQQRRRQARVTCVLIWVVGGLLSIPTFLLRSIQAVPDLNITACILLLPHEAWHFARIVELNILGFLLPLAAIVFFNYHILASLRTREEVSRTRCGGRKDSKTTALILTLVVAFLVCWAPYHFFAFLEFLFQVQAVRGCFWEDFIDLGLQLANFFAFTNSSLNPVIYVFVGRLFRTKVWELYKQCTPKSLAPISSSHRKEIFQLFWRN
Text: Activation of the Gq linked B1 receptor results in an increase in intracellular calcium. The calcium sensitive photoprotein aequorin can, therefore, be used as an indicator of B1 receptor activation. Aequorin is a 21-kDa photoprotein that forms a bioluminescent complex when linked to the chromophore cofactor coelenterazine. Following the binding of calcium to this complex, an oxidation reaction of coelenterazine results in the production of apoaequorin, coelenteramide, CO2, and light that can be detected by conventional luminometry.
A stable CHO D-/hB1/Aequorin cell line was established and the cells were maintained in suspension in spinner bottles containing a 1:1 ratio of DMEM and HAM F12 (Gibco 11765-047), high glucose (Gibco 11965-084), 10% Heat Inactivated Dialyzed serum (Gibco 26300-061), 1× Non-Essential Amino Acids (Gibco 11140-050), 1× Glutamine-Pen-Strep (Gibco 10378-016), and Hygromycin, 300 μg/mL (Roche 843555). […]
Media was removed from the wells and replaced with 60 μL of serum free HAM's F12 with 30 mM HEPES (pH 7.5) and 15 μM coelenterazine (Coelenterazine h Luciferin #90608 from Assay Designs). […] The hB1 agonist, des-Arg10-Kallidin, was added to the cell plate and another 12 images were recorded to determine the IC50 of the antagonist(s).

[1] = cited from earlier work

Cc1ccc(S(=O)(=O)N[C@H](Cc2cn([C@@H]3CCOc4cc(CN5CCC(F)CC5)ccc43)nn2)C(N)=O)cc1 [Example 7, (R)-3-(1-((R)-7-((4-fluoropiperidin-1-yl)methyl)-3,4-dihydro-2H-chromen-4-yl)-1H-1,2,3-triazol-4-yl)-2-(4-methylphenylsulfonamido)propanamide]
IC50 (hB1 receptor): < 1000 nM

RPPGFSPFR [BK, Bradykinin]
half-life of BK in plasma [1]: approximately 17 seconds
